Measured values taken from patent publication US11339130B1 (Blade Therapeutics, Inc., priority 2016, dated 2022).
Read-outs that look alike come from different tables or passages of the source.

Tests used:
Human Calpain 9/NS1 = target: T1, Human Calpain 9/NS1 (Homo sapiens, UniProt O14815); assay: Calpain inhibition continuous fluorescence (FRET) assay, Human Calpain 9/NS1; assay type: biochemical; conditions: Column C; read-out: Human Calpain 9/NS1 IC50
T1 sequence (O14815 1-690): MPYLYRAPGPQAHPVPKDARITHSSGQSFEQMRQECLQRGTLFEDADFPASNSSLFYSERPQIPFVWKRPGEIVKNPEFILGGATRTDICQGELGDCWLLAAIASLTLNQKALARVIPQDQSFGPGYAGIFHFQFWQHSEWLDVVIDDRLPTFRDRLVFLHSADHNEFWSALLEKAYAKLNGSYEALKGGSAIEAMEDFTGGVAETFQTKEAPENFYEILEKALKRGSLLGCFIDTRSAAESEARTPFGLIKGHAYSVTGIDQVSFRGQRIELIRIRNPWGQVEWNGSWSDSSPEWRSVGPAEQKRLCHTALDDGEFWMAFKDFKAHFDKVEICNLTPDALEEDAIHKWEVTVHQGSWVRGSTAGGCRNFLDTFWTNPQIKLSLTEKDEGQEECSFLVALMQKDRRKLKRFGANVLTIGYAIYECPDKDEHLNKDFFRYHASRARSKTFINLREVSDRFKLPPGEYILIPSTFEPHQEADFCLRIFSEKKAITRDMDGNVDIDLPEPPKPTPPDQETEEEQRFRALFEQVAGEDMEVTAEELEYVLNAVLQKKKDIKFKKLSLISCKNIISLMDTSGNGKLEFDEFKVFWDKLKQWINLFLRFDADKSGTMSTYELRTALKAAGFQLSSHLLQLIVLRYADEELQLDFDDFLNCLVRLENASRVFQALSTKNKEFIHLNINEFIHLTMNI
T1 sequence (P04632 1-268 partner): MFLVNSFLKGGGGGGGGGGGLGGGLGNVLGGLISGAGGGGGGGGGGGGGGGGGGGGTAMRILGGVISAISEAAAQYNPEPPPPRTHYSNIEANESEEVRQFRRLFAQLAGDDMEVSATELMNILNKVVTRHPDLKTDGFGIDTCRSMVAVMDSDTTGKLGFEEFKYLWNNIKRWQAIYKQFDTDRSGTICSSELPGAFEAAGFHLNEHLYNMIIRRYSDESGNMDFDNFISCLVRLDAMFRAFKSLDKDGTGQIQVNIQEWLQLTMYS
In short: (§1)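 Continuous FRET read (ex 490/em 520 nm, 10 min) of calpain 1, 2 or 9 cleaving an internally quenched 5-FAM peptide, triggered by substrate with CaCl2 after enzyme–inhibitor incubation at ambient 25 °C, pH 7.5 Tris/NaCl/DTT buffer. IC50 from initial rates (1-5 min) via 4-parameter fit.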

Human Calpain 1/NS1 = target: T2, Human Calpain 1/NS1 (Homo sapiens, UniProt P07384); assay: Calpain inhibition continuous fluorescence (FRET) assay, Human Calpain 1/NS1; assay type: biochemical; conditions: Column A; read-out: Human Calpain 1/NS1 IC50
T2 sequence (P07384 1-714): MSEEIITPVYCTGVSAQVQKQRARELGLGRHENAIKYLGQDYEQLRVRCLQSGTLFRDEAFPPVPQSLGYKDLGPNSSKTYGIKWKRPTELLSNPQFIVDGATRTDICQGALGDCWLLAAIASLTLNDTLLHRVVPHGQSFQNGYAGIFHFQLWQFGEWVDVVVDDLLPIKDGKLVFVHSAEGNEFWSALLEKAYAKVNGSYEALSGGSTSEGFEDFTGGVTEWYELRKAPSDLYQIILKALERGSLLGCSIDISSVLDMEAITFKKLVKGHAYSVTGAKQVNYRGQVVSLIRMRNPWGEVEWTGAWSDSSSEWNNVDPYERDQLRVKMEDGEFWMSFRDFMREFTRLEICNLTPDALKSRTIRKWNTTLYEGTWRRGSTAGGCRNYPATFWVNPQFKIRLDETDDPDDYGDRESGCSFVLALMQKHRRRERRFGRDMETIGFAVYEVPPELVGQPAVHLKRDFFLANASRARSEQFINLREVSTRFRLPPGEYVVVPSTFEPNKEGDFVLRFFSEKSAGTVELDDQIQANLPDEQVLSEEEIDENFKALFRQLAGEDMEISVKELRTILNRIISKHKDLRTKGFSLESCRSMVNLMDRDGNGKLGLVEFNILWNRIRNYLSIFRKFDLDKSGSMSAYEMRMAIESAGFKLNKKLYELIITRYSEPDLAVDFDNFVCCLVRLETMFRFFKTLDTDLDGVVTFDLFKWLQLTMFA
T2 sequence (P04632 1-268 partner): T1 sequence (P04632 1-268 partner)
In short: as §1

[1] = test system: Calpain activity in SH-SY5Y cells; assay: SH-SY5Y + AMC fluorescence assay (Suc-LLVY-AMC substrate); assay type: cell-based
[2] = test system: Calpain activity in SH-SY5Y cells (SBDP-150); assay: SH-SY5Y Spectrin western blot assay (SBDP-150 breakdown product, A23187-induced); assay type: cell-based; conditions: Homo sapiens, read-out: SH-SY5Y Spectrin IC50
Human Calpain 2/NS1 = target: T3, Human Calpain 2/NS1 (Homo sapiens, UniProt P17655); assay: Calpain inhibition continuous fluorescence (FRET) assay, Human Calpain 2/NS1; assay type: biochemical; conditions: Column B; read-out: Human Calpain 2/NS1 IC50
T3 sequence (P17655 1-700): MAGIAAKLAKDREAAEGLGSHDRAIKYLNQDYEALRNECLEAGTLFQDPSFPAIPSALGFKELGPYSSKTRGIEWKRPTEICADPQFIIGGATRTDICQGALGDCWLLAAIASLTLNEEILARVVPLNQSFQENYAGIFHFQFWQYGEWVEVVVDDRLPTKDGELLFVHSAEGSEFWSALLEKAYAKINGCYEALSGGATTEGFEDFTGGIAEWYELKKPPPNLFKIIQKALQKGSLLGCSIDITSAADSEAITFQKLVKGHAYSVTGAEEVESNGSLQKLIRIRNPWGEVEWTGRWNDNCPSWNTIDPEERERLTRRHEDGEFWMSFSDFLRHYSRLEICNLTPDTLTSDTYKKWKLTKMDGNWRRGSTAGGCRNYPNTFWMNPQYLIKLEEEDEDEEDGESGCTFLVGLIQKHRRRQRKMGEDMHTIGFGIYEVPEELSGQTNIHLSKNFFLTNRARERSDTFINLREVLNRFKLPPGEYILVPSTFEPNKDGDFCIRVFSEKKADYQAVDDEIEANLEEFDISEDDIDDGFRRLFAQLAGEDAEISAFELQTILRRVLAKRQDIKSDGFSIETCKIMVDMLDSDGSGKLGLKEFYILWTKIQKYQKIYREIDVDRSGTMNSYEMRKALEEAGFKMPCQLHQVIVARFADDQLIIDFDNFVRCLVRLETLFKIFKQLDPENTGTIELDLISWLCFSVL
T3 sequence (P04632 1-268 partner): T1 sequence (P04632 1-268 partner)
In short: as §1

[3] = Column E, read-out: SH-SY5Y + AMC IC50
[4] = Column D, SH-SY5Y cells, A23187-induced SBDP-150
[5] = read-out: SH-SY5Y + AMC IC50, Column E

`Cc1cc(C(=O)N[C@@H](Cc2ccccc2)C(=O)C(N)=O)c(-c2ccccc2)o1` [Compound 118, (S)—N-(4-amino-3,4-dioxo-1-phenylbutan-2-yl)-5-methyl-2-phenylfuran-3-carboxamide] showed an IC50 (Human Calpain 9/NS1) of under 3 µM, an IC50 (Human Calpain 1/NS1) of under 3 µM and an IC50 [1, 3] of over 25 µM. For the same molecule, the IC50 [2, 4] was under 10 µM and the IC50 (Human Calpain 2/NS1) was under 3 µM.

`Cc1ccc(-n2nc(C)cc2C(=O)N[C@@H](Cc2ccccc2)C(=O)C(N)=O)nc1` [Compound 120, (S)—N-(4-amino-3,4-dioxo-1-phenylbutan-2-yl)-3-methyl-1-(5-methylpyridin-2-yl)-1H-pyrazole-5-carboxamide] gave an IC50 (Human Calpain 9/NS1) of under 3 µM, an IC50 (Human Calpain 1/NS1) of under 3 µM and an IC50 [1, 3] of 10 to 25 µM. For the same molecule, the IC50 [2, 4] was under 10 µM and the IC50 (Human Calpain 2/NS1) was under 3 µM.

Molecule `Cc1cc(C(=O)N[C@@H](Cc2ccccc2)C(=O)C(N)=O)n(-c2ccc(-c3ccc(F)cc3)cc2)n1` [Compound 126, (S)—N-(4-amino-3,4-dioxo-1-phenylbutan-2-yl)-1-(4′-fluoro-[1,1′-biphenyl]-4-yl)-3-methyl-1H-pyrazole-5-carboxamide] has an IC50 (Human Calpain 9/NS1) of under 3 µM, an IC50 (Human Calpain 1/NS1) of under 3 µM and an IC50 [1, 3] of over 25 µM. It also gave an IC50 [2, 4] of under 10 µM and an IC50 (Human Calpain 2/NS1) of under 3 µM.

`Cc1ccc(-c2ccc(-n3nc(C)cc3C(=O)N[C@@H](Cc3ccccc3)C(=O)C(N)=O)cc2)cc1` [Compound 130] showed an IC50 (Human Calpain 9/NS1) of under 3 µM, an IC50 (Human Calpain 1/NS1) of under 3 µM and an IC50 [1, 3] of over 25 µM. The IC50 [2, 4] was under 10 µM and the IC50 (Human Calpain 2/NS1) was under 3 µM.

In the case of `Cc1cc(C(=O)N[C@@H](Cc2ccccc2)C(=O)C(N)=O)n(-c2ccc(COc3ccccc3)cc2)n1` [Compound 131, (S)—N-(4-amino-3,4-dioxo-1-phenylbutan-2-yl)-3-methyl-1-(4-(phenoxymethyl)phenyl)-1H-pyrazole-5-carboxamide], the IC50 (Human Calpain 9/NS1) is reported as under 3 µM, the IC50 (Human Calpain 1/NS1) is reported as under 3 µM and the IC50 [1, 3] is reported as over 25 µM. For the same molecule, the IC50 [2, 4] was 10 to 25 µM and the IC50 (Human Calpain 2/NS1) was under 3 µM.

`Cc1cc(C(=O)N[C@@H](Cc2ccccc2)C(=O)C(N)=O)n(-c2cccnc2)n1` [Compound 136, (S)—N-(4-amino-3,4-dioxo-1-phenylbutan-2-yl)-3-methyl-1-(pyridin-3-yl)-1H-pyrazole-5-carboxamide] was tested, and the IC50 (Human Calpain 9/NS1) was under 3 µM, the IC50 (Human Calpain 1/NS1) was under 3 µM and the IC50 [1, 3] was 10 to 25 µM. The IC50 [2, 4] was 10 to 25 µM and the IC50 (Human Calpain 2/NS1) was under 3 µM.

In the case of `Cc1cc(C(=O)N[C@@H](Cc2ccccc2)C(=O)C(N)=O)n(-c2cccc(CNC(=O)CCc3ccccc3)c2)n1` [Compound 142, (S)—N-(4-amino-3,4-dioxo-1-phenylbutan-2-yl)-3-methyl-1-(3-((3-phenylpropanamido)methyl)phenyl)-1H-pyrazole-5-carboxamide], the IC50 (Human Calpain 9/NS1) is reported as under 3 µM, the IC50 (Human Calpain 1/NS1) is reported as under 3 µM and the IC50 [1, 3] is reported as under 10 µM. For the same molecule, the IC50 [2, 4] was 10 to 25 µM and the IC50 (Human Calpain 2/NS1) was under 3 µM.

`CC(=O)NCc1cccc(-n2nc(C)cc2C(=O)N[C@@H](Cc2ccccc2)C(=O)C(N)=O)c1` [Compound 143, (S)-1-(3-(acetamidomethyl)phenyl)-N-(4-amino-3,4-dioxo-1-phenylbutan-2-yl)-3-methyl-1H-pyrazole-5-carboxamide] showed an IC50 (Human Calpain 9/NS1) of under 3 µM, an IC50 (Human Calpain 1/NS1) of under 3 µM and an IC50 [1, 3] of under 10 µM. It also gave an IC50 [2, 4] of 10 to 25 µM and an IC50 (Human Calpain 2/NS1) of under 3 µM.

With `Cc1cc(C(=O)N[C@@H](Cc2ccccc2)C(=O)C(N)=O)n(-c2cccc(CNC(=O)Cc3ccccc3)c2)n1` [Compound 144, (S)—N-(4-amino-3,4-dioxo-1-phenylbutan-2-yl)-3-methyl-1-(3-((2-phenylacetamido)methyl)phenyl)-1H-pyrazole-5-carboxamide] the IC50 (Human Calpain 9/NS1) was under 3 µM, the IC50 (Human Calpain 1/NS1) was under 3 µM and the IC50 [1, 3] was under 10 µM. The IC50 [2, 4] was under 10 µM and the IC50 (Human Calpain 2/NS1) was under 3 µM.

For `Cc1cc(C(=O)N[C@@H](Cc2ccccc2)C(=O)C(N)=O)n(-c2cccc(CNS(=O)(=O)c3ccccc3)c2)n1` [Compound 145, (S)—N-(4-amino-3,4-dioxo-1-phenylbutan-2-yl)-3-methyl-1-(3-(phenylsulfonamidomethyl)phenyl)-1H-pyrazole-5-carboxamide], the IC50 (Human Calpain 9/NS1) was under 3 µM, the IC50 (Human Calpain 1/NS1) was under 3 µM and the IC50 [1, 3] was under 10 µM. For the same molecule, the IC50 [2, 4] was under 10 µM and the IC50 (Human Calpain 2/NS1) was under 3 µM.

For `Cc1cc(C(=O)N[C@@H](Cc2ccccc2)C(=O)C(N)=O)n(-c2cccc(CNCc3ccccc3)c2)n1` [Compound 146, (S)—N-(4-amino-3,4-dioxo-1-phenylbutan-2-yl)-1-(3-((benzylamino)methyl)phenyl)-3-methyl-1H-pyrazole-5-carboxamide], the IC50 (Human Calpain 9/NS1) was under 3 µM, the IC50 (Human Calpain 1/NS1) was under 3 µM and the IC50 [1, 3] was under 10 µM. The IC50 [2, 4] was 10 to 25 µM and the IC50 (Human Calpain 2/NS1) was under 3 µM.

Molecule `CCOC(=O)NCc1cccc(-n2nc(C)cc2C(=O)N[C@@H](Cc2ccccc2)C(=O)C(N)=O)c1` [Compound 147, Ethyl (S)-(3-(5-((4-amino-3,4-dioxo-1-phenylbutan-2-yl)carbamoyl)-3-methyl-1H-pyrazol-1-yl)benzyl)carbamate] has an IC50 (Human Calpain 9/NS1) of under 3 µM, an IC50 (Human Calpain 1/NS1) of under 3 µM and an IC50 [1, 5] of 10 to 25 µM. The IC50 ([2]; SH-SY5Y) was 10 to 25 µM and the IC50 (Human Calpain 2/NS1) was under 3 µM.

`Cc1cc(C(=O)N[C@@H](Cc2ccccc2)C(=O)C(N)=O)n(-c2ccc(CNC(=O)OCc3ccccc3)cc2)n1` [Compound 153, Benzyl (S)-(4-(5-((4-amino-3,4-dioxo-1-phenylbutan-2-yl)carbamoyl)-3-methyl-1H-pyrazol-1-yl)benzyl)carbamate] gave an IC50 (Human Calpain 9/NS1) of under 3 µM, an IC50 (Human Calpain 1/NS1) of under 3 µM and an IC50 [1, 5] of over 25 µM. It also gave an IC50 ([2]; SH-SY5Y) of under 10 µM and an IC50 (Human Calpain 2/NS1) of under 3 µM.

In the case of `Cc1cc(C(=O)N[C@@H](Cc2ccccc2)C(=O)C(N)=O)n(-c2ccc(CNC(=O)c3ccccc3)cc2)n1` [Compound 154, (S)—N-(4-amino-3,4-dioxo-1-phenylbutan-2-yl)-1-(4-(benzamidomethyl)phenyl)-3-methyl-1H-pyrazole-5-carboxamide], the IC50 (Human Calpain 9/NS1) is reported as under 3 µM, the IC50 (Human Calpain 1/NS1) is reported as under 3 µM and the IC50 [1, 3] is reported as over 25 µM. The IC50 [2, 4] was 10 to 25 µM and the IC50 (Human Calpain 2/NS1) was under 3 µM.
